Test results taken from publication PMC4718634, “Murine GPRC6A Mediates Cellular Responses to L-Amino Acids, but Not Osteocalcin Variants” (PLoS ONE, 2016).
Entries after “also recorded” stand apart in the source; their conditions may differ.

What was measured:
GLUTag cells = assay: GLP-1 release from GLUTag cells; format: cell-based, murine; conditions: for GLP-1 release (summary): S1 Table
In short: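 Matrigel-grown cells, where indicated pre-washed in Krebs-HEPES pH 7.2 with 5.5 mM glucose and 300 μM vildagliptin, were exposed to compound for 2 h at 37 °C. Secreted GLP-1 was measured by fluorescent ELISA (355/460 nm) and normalised to Bradford protein. LogEC50 values came from 3- or 4-parameter logistic fits.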

MIN6 cells = assay: Insulin release from MIN6 cells; format: cell-based, murine
In short: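 After 72 h culture and 2 h glucose-free deprivation, cells exposed to compound for 2 h at 37°C in Krebs buffer pH 7.4 with 2 mM or 16.7 mM glucose. Secreted insulin measured by ELISA, normalised to vehicle at matching glucose; LogEC50 from three- or four-parameter logistic fit.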

GPRC6A [1] = test system: GPRC6A; design: method as in PMID 15576628; conditions: chimera with goldfish 5.24 receptor and full length GPRC6A; ref [1]; cited from earlier work
INS-1(832) cells = assay: Label-free cell impedance, INS-1(832) cells; format: cell-based, rat; conditions: S1 Table
In short: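 INS-1(832) cells seeded at 2 x 10^4/well, cultured 48 h in 11.1 mM glucose RPMI, then switched to EBSS containing 2.8 mM glucose for 2 h. Compound added in the same buffer; impedance captured and analysed as for HEK293 cells.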

[2] = test system: immortalised cell lines (e.g. pancreatic β-cells); conditions: ref [12], cited from earlier work
Text: (§1) Additional interest in GPRC6A has emerged due to several studies reporting that it mediates the metabolic and endocrine effects of the de-carboxylated form of the osteoblast-derived peptide, osteocalcin (OCN). […] By examining cell signalling events downstream of recombinantly expressed mouse GPRC6A and phenotypic assays in cell lines endogenously expressing the Gprc6a transcript, we confirmed that GPRC6A is a receptor for basic L-amino acids, but were unable to detect any effect of OCN variants, irrespective of peptide species or source. GPRC6A has emerged in recent years as an interesting target due to its putative role in med ...

mice = conditions: [21], cited from earlier work
Text: as §1

[3] = test system: GPRC6A-expressing cell lines or mouse pancreatic islets; conditions: ref [31]; cited from earlier work
Text: (§2) The involvement of GPRC6A has been shown by transfection of receptor-specific siRNA, receptor blockade with a polyclonal antibody and, in the case of the islets, using tissue from KO mice.

GPRC6A [4] = conditions: GPRC6A-expressing cell lines or mouse pancreatic islets; ref [29]; cited from earlier work
Text: as §2

NCCC[C@H](N)C(=O)O [L-ornithine]
GLP-1 release (GLUTag cells; L-ornithine 20 mM, 2 h, 37°C, cells washed, **P < 0.01 vs Vehicle, ELISA, Fig 6A): significantly increases GLP-1 release; also recorded: L-ornithine stimulated GLP-1 release
GLP-1 release (summary) (GLUTag cells): response
glucose-sensitive insulin secretion (MIN6 cells; L-ornithine 20 mM, 16.7 mM glucose, P < 0.01 vs Vehicle, 2 h, ELISA, Fig 6B): significantly increased glucose-sensitive insulin secretion; also recorded: could be increased by L-ornithine
agonist response of GPRC6A (GPRC6A [1]): mediates responses to L-amino acids

OCN: osteoblast-derived peptide, osteocalcin; variant not specified at the place (YLYQWLGAPVPYPDPLEPRREVCELNPDCDELADHIGFQEAYRRFYGPV; UniProt P02818 52-100, looked up)
xCELLigence response (summary) (INS-1(832) cells): xCELLigence – response to OCN
GLP-1 release, OCN (GLUTag cells; 0.01–10 ng/ml, with or without cell washing, 2 h, Fig 6A): failed to increase GLP-1 release
GLP-1 release (summary) (GLUTag cells): No response
insulin secretion, OCN (MIN6 cells; mouse OCN 0.03–30 ng/mL, 0.03–100 ng/mL (Fig 6B legend), low and high glucose): failed to induce GSIS
insulin release ([2]; blocked by siRNA targeting Gprc6a, [22]): OCN-mediated insulin and glucagon-like peptide (GLP)-1 release
insulin secretion in vitro and ex vivo ([2]; [20], [21]): promoting insulin secretion in vitro and ex vivo
β-cell proliferation, insulin release, insulin sensitivity, energy expenditure, testosterone synthesis (mice; mice, ref [20]): increase pancreatic β-cell proliferation, insulin release from pancreatic islets, insulin sensitivity and energy expenditure and testosterone synthesis in the gonads in mice
β-cell proliferation, insulin sensitivity, energy expenditure (mice; ref [12], [20]): can increase pancreatic β-cell proliferation, insulin sensitivity and energy expenditure in vivo
β-cell proliferation [3]: increased β-cell proliferation
intracellular calcium mobilisation (GPRC6A [4]): cause intracellular calcium mobilisation
